Earlier results, collected in patent US20090215766A1, “TETRACYCLIC INHIBITORS OF JANUS KINASES” (Incyte Corporation, priority 2004, published 2009).

Columns and labels:
[1] = tested on: IL-6-dependent MM cell lines
[2] = tested on: NOD mouse model of autoimmune type 1 diabetes
[3] = tested on: myeloid dendritic cells (DCs); conditions: CD40-induced maturation of myeloid DCs

SMILES: N#C/C(=C\c1ccc(O)c(O)c1)C(=O)NCc1ccccc1 [tyrphostin AG490]
- ERK2 and STAT3 phosphorylation [1]: inhibited
- JAK2 kinase activity [1]: inhibited
- apoptosis [1]: induced
- cell proliferation [1]: suppressed

SMILES: COc1cc2ncnc(Nc3ccc(O)cc3)c2cc1OC [JANEX-1]
- onset of diabetes [2]: delayed the onset of diabetes

SMILES: COc1cc2ncnc(Nc3ccc(O)c(Br)c3)c2cc1OC [WHI-P-154]
- CD40-induced DC maturation effects (costimulatory molecule expression, IL-12 production, allogeneic stimulatory capacity) [3]: prevented these effects
